The text below walks through data of patent publication US11638713B2, “Patentiflorin A analogs as antiviral agents” (priority 2019, dated 2023).

One data set has as its system EBOV (Ebola virus). Kind of data set: microbe, parasite or virus in culture. It counts as cell-based. The note with it: Zaire ebolavirus; for EC50: A549, read-out: EC50 against EBOV; for inhibition at 0.01 µg/mL: 10 ng/mL; for inhibition at 0.05 µg/mL: 50 ng/mL; for inhibition at 0.0125 µg/mL: 12.5 ng/mL.
Another data set relates to H5N1 virus. Kind of data set: microbe, parasite or virus in culture. Format: cell-based, H5N1 influenza virus. The note with it: for EC50: H5N1, A549, read-out: EC50 against H5N1 virus; for inhibition at 0.01 µg/mL: H5N1, A549, 10 ng/mL; for inhibition at 0.0125 µg/mL: H5N1, A549, 12.5 ng/mL; for inhibition at 0.05 µg/mL: H5N1, A549, 50 ng/mL; for inhibition at 0.25 µg/mL: H5N1, A549, 250 ng/mL; for inhibition at 1 µg/mL: H5N1, A549, 1000 ng/mL; for inhibition at 5 µg/mL: H5N1, A549, 5000 ng/mL.

A further data set can be described thus: in vitro. Particulars: human.
Another data set relates to A549 cells. Nature of the data set: cells. The note with it: Homo sapiens, A549, read-out: % Inhibition against A549 cells.
The test system of data set [1] is VSV (vesicular stomatitis virus). Nature of the data set: microbe, parasite or virus in culture. It counts as cell-based. Particulars: for EC50: A549, read-out: EC50 against VSV; for inhibition at 0.01 µg/mL: A549, 10 ng/mL; for inhibition at 0.05 µg/mL: A549, 50 ng/mL; for inhibition at 0.0125 µg/mL: A549, 12.5 ng/mL.
The test system of a further data set is SARS-CoV-2. Kind of data set: microbe, parasite or virus in culture. Format: cell-based. The note with it: Severe acute respiratory syndrome coronavirus 2, HepG2, read-out: EC50 against SARS-CoV-2.
A further data set relates to HIV. Nature of the data set: microbe, parasite or virus in culture. It counts as cell-based. The note with it: for EC50: Human immunodeficiency virus 1, A549.
[2] abbreviates: CC50 against the host cell line A549.
Where [3] appears, read: A549, read-out: % Inhibition against EBOV.
The mark [4] stands for this setting: Influenza A virus, read-out: % Inhibition against H5N1 virus.
The mark [5] stands for this setting: read-out: % Inhibition against VSV.

For the compound `COc1cc2c(OC3O[C@H](CO)[C@@H](O)[C@H](O)[C@H]3O)c3c(c(-c4ccc5c(c4)OCO5)c2cc1OC)C(=O)OC3` (stereo partly drawn) [Compound 26f, 7-O-β-D-glucopyranosyldiphyllin], the EC50 with EBOV (Ebola virus) was determined as 516 nM; in the data set on H5N1 virus (Influenza A virus), 371 nM; in data set [1], 1040 nM. The inhibition at 0.1 µg/mL with EBOV (Ebola virus) (A549, 100 ng/mL, read-out: % Inhibition against EBOV) is 82.7%; with H5N1 virus (Influenza A virus, H5N1, A549, 100 ng/mL, read-out: % Inhibition against H5N1 virus), 62.4%; in the data set on A549 cells it was -3.84%; in data set [1] (A549, 100 ng/mL, read-out: % Inhibition against VSV), 47.2%. Moreover, the inhibition at 0.5 µg/mL came to 89.1% in the data set on EBOV (Ebola virus) (A549, 500 ng/mL, read-out: % Inhibition against EBOV); 87.2% with H5N1 virus (Influenza A virus, H5N1, A549, 500 ng/mL, read-out: % Inhibition against H5N1 virus); 18.2% in the data set with A549 cells; 70.8% in data set [1] (A549, 500 ng/mL, read-out: % Inhibition against VSV). In addition, the CC50 in “in vitro” (CC50 (nM)) was > 9220 nM; in the data set “in vitro” (setting [2]) it was 8650 nM.
On to `COc1cc2c(OC3O[C@H](CO)[C@H]4OC(C)(C)O[C@@H]4[C@H]3O)c3c(c(-c4ccc5c(c4)OCO5)c2cc1OC)C(=O)OC3` (stereo partly drawn) [Compound 32a, 3″, 4″-Acetonide-4-O-β-D-glucopyranosyldiphyllin], for which the EC50 with EBOV (Ebola virus) came to 1.2 nM; in the data set on H5N1 virus (Influenza A virus) it was 0.63 nM; with SARS-CoV-2 it was 2.95 nM; in data set [1] it was 18.1 nM. Besides, the CC50 in the data set “in vitro” (CC50 (nM)) came to 52.7 nM; in the data set “in vitro” (setting [2]) it was 61.6 nM.
As for `COc1cc2c(O)c3c(c(-c4ccc5c(c4)OCO5)c2cc1OC)C(=O)OC3` [Compound 5, diphyllin], the EC50 with SARS-CoV-2 is 150 nM; in the data set with HIV, 37.1 nM. The CC50 in “in vitro” (CC50 (nM)) is 3610 nM.
On to `COc1cc2c(OC3O[C@H](C)[C@@H](O)[C@H](OC(=O)C4CC4)[C@H]3O)c3c(c(-c4ccc5c(c4)OCO5)c2cc1OC)C(=O)OC3` (stereo partly drawn) [Compound 31g, 3″-O-cyclopropanecarbonyl-7-O-4i-D-patentiflorin A], for which, in the data set on EBOV (Ebola virus) (setting [3]), the inhibition at 0.01 µg/mL stood at 79.1% and the inhibition at 0.05 µg/mL was determined as 90.9%. Moreover, the “% Inhibition against H5N1 virus” value in the data set on H5N1 virus (50 ng/mL) came out at 89.0%. Besides, in the data set with H5N1 virus (setting [4]), the inhibition at 0.01 µg/mL worked out at 78.9%, the inhibition at 0.0125 µg/mL amounted to 97.9%, the inhibition at 0.05 µg/mL came out at 97.9% and the inhibition at 0.25 µg/mL came out at 98.1%. For the same compound, the CC50 in “in vitro” (CC50 (nM)) amounted to 26.7 nM. In the data set on A549 cells, the inhibition at 0.01 µg/mL turned out to be 11% and the inhibition at 0.05 µg/mL is 54.6%. Further, in data set [1] (setting [5]), the inhibition at 0.01 µg/mL was 63.3% and the inhibition at 0.05 µg/mL worked out at 95.7%.
In the case of `C=CCOC(=O)O[C@@H]1COC(Oc2c3c(c(-c4ccc5c(c4)OCO5)c4cc(OC)c(OC)cc24)C(=O)OC3)[C@H](O)[C@H]1OC(C)=O` (stereo partly drawn) [Compound 28ab1, 4″-O-allyl oxycarbonyl-3″-acetyl-7-O-β-D-xylosyldiphyllin], the EC50 in the data set with EBOV (Ebola virus) stood at 18.9 nM; in the data set on H5N1 virus (Influenza A virus), 5.05 nM; with SARS-CoV-2 it was 26.3 nM; in data set [1], 3.78 nM. The inhibition at 0.0125 µg/mL in the data set with EBOV (Ebola virus) (setting [3]) worked out at 81%; in the data set with H5N1 virus (setting [4]) it was 91.8%; in the data set with A549 cells it was 35.5%; in data set [1] (setting [5]), 85.9%. For the same compound, the inhibition at 0.05 µg/mL came to 82.4% in the data set on EBOV (Ebola virus) (setting [3]), 86% in the data set on H5N1 virus (setting [4]), 40.9% with A549 cells and 83.5% in data set [1] (setting [5]). Besides, the CC50 in “in vitro” (CC50 (nM)) stood at 513 nM; in the data set “in vitro” (setting [2]), 190 nM.
In the case of `COc1cc2c(OC3O[C@H](CO)[C@@H]4OC(C)(C)O[C@@H]4[C@H]3O)c3c(c(-c4ccc5c(c4)OCO5)c2cc1OC)C(=O)OC3` (stereo partly drawn) [Compound 32b, 3″, 4″-Acetonide-4-O-β-D-galactopyranosyldiphyllin], the EC50 was determined as 0.85 nM with EBOV (Ebola virus), 0.77 nM in the data set on H5N1 virus (Influenza A virus), 3.01 nM in the data set on SARS-CoV-2 and 3.15 nM in data set [1]. Further, the inhibition at 0.01 µg/mL stood at 86.4% in the data set with EBOV (Ebola virus) (setting [3]), 91.7% with H5N1 virus (setting [4]), 40.5% with A549 cells and 90.9% in data set [1] (setting [5]). Further, the inhibition at 0.05 µg/mL in the data set on EBOV (Ebola virus) (setting [3]) turned out to be 92.7%; with H5N1 virus (setting [4]), 88.1%; with A549 cells it was 76%; in data set [1] (setting [5]) it was 99.6%. The CC50 was 52.7 nM in “in vitro” (CC50 (nM)) and 30.7 nM in “in vitro” (setting [2]).
Consider `COc1cc2c(OC3OC[C@@H](O)[C@H](OC(=O)N(C)C)[C@H]3O)c3c(c(-c4ccc5c(c4)OCO5)c2cc1OC)C(=O)OC3` (stereo partly drawn) [Compound 31a, 3″-O-dimethylcarbamyl-7-O-β-D-xylosyldiphyllin], for which the inhibition at 1 µg/mL in the data set with EBOV (Ebola virus) (A549, 1000 ng/mL, read-out: % Inhibition against EBOV) turned out to be 81.8%; in the data set with H5N1 virus (setting [4]) it was 94.7%; in the data set with A549 cells, 47.5%; in data set [1] (A549, 1000 ng/mL, read-out: % Inhibition against VSV), 80.4%. The inhibition at 5 µg/mL was 95.2% in the data set on EBOV (Ebola virus) (A549, 5000 ng/mL, read-out: % Inhibition against EBOV); 98.4% in the data set on H5N1 virus (setting [4]); 99.8% with A549 cells; 99.6% in data set [1] (A549, 5000 ng/mL, read-out: % Inhibition against VSV). In the data set on H5N1 virus (setting [4]), the inhibition at 0.0125 µg/mL is 87.9%. For the same compound, the inhibition at 0.05 µg/mL in the data set on H5N1 virus (setting [4]) amounted to 94.4%. For the same compound, the inhibition at 0.25 µg/mL in the data set with H5N1 virus (setting [4]) was found to be 97.6%. For the same compound, the CC50 in “in vitro” (CC50 (nM)) was 55.8 nM.
`COc1cc2c(OC3O[C@H](C)[C@H](O)[C@H](O)[C@H]3O)c3c(c(-c4ccc5c(c4)OCO5)c2cc1OC)C(=O)OC3` (stereo partly drawn) [Compound 26e, 7-O-β-D-fucopyranosyldiphyllin]: in the data set on H5N1 virus (setting [4]), the inhibition at 1 µg/mL turned out to be 48.5% and the inhibition at 5 µg/mL was 88.9%. Besides, the EC50 in the data set on SARS-CoV-2 turned out to be 30.4 nM. Also, the “anti-HIV activity (inhibition)” value in the data set with HIV (at 9496.9 nM) is “no inhibition”. Further, the CC50 in “in vitro” (CC50 (nM)) was > 9500 nM.
Consider `COc1cc2c(OC3O[C@H](C)[C@@H](O)[C@H](O)[C@H]3O)c3c(c(-c4ccc5c(c4)OCO5)c2cc1OC)C(=O)OC3` (stereo partly shown) [Compound 26b, Patentiflorin A], for which the EC50 amounted to 54.8 nM with EBOV (Ebola virus); 4.48 nM in the data set on H5N1 virus (Influenza A virus); 67.2 nM with SARS-CoV-2; 21.1 nM in the data set with HIV; 42.5 nM in data set [1]. The CC50 stood at 347 nM in the data set “in vitro” (CC50 (nM)) and 386 nM in “in vitro” (setting [2]).
Take `COc1cc2c(OC3OC[C@@H](O)[C@H](OCc4ccccc4)[C@H]3O)c3c(c(-c4ccc5c(c4)OCO5)c2cc1OC)C(=O)OC3` (stereo partly drawn) [Compound 31l, 3″-O-benzyl-7-O-β-D-xylosyldiphyllin]: the EC50 in the data set on EBOV (Ebola virus) came out at 0.19 nM; in the data set on H5N1 virus (Influenza A virus) it was 0.013 nM; in data set [1], 0.37 nM. Also, the inhibition at 0.0125 µg/mL with EBOV (Ebola virus) (setting [3]) came out at 86.4%; in the data set on H5N1 virus (setting [4]), 82.8%; with A549 cells, 52%; in data set [1] (setting [5]), 88.7%. The inhibition at 0.05 µg/mL with EBOV (Ebola virus) (setting [3]) was found to be 94.2%; with H5N1 virus (setting [4]), 96%; in the data set on A549 cells, 82.1%; in data set [1] (setting [5]), 98.4%. The figures for the “% Inhibition against H5N1 virus” value with H5N1 virus (12.5 ng/mL) and in the data set with H5N1 virus (50 ng/mL) were 95.1% and 95.6%, respectively. Besides, the inhibition at 0.25 µg/mL in the data set with H5N1 virus (setting [4]) turned out to be 96.8%. In “in vitro” (setting [2]), the CC50 is 4.85 nM.
With `COc1cc2c(OC3O[C@H](C)[C@@H](O)[C@H](OC(=O)c4ccc(N(C)C)cc4)[C@H]3O)c3c(c(-c4ccc5c(c4)OCO5)c2cc1OC)C(=O)OC3` (stereo partly drawn) [Compound 31e, 3″-O-p-dimethylaminobenzoyl-7-O-β-D-patentiflorin A], the EC50 is 1.13 nM in the data set with EBOV (Ebola virus), 0.74 nM in the data set on H5N1 virus (Influenza A virus), 2.41 nM in the data set on HIV and 2.41 nM in data set [1]. Moreover, the inhibition at 0.0125 µg/mL with EBOV (Ebola virus) (setting [3]) was 77.5%; in the data set with H5N1 virus (setting [4]), 98.1%; with A549 cells, 53.1%; in data set [1] (setting [5]), 77.4%. The inhibition at 0.05 µg/mL with EBOV (Ebola virus) (setting [3]) came to 86.5%; with H5N1 virus (setting [4]), 97.9%; in the data set with A549 cells, 66.8%; in data set [1] (setting [5]), 86.3%. Besides, the “% Inhibition against H5N1 virus” value came out at 95.4% in the data set on H5N1 virus (12.5 ng/mL) and 96.5% with H5N1 virus (50 ng/mL). Further, the inhibition at 0.25 µg/mL in the data set with H5N1 virus (setting [4]) amounted to 98.4%. Moreover, the CC50 in “in vitro” (CC50 (nM)) and in the data set “in vitro” (setting [2]) was 17.7 nM each time.
